Test [1] relates to IDO1 expression. Nature of the test: Immunoblotting of IDO1 in human pancreatic cancer cells. The class given is cell-based. As to conditions: for IDO1 protein levels: 2D or 3D culture, MG132 20 μM 16 h, bafilomycin A1 100 nM. A general note: A western blot detects proteins with antibodies after separation by electrophoresis.
In a further test the test system is ATF-4 response. Nature of the test: Western blots of SSP enzymes and ATF-4 response. As to conditions: MG-132 10 μM. It is filed as cell-based, human. Here is the method:
Protein lysates were processed in RIPA-buffer supplemented with phosphatase inhibitor cocktail and complete protease inhibitors. Lysates were separated using precast NuPAGE 4-12% Bis-Tris Protein gels and transferred to nitrocellulose membranes. Following incubation with primary antibodies, appropriate secondary antibodies were used to detect the proteins. Westerns scanned using the Odyssey CLx or visualized using ECL chemiluminescence detection kits.
Cells were grown for 24 hours in −SG medium or CM and treated with 10 μM PH755 diluted in DMSO or DMSO alone. To evaluate protein synthesis, puromycin (final concentration: 90 μM) was added to each well 10 minutes prior harvesting the cells for western blot analysis, except in the negative control well. Where indicated, cells grown in CM medium were treated with cycloheximide (10 μg/mL) for the last 5 hours providing a control for translation inhibition. Incorporation of puromycin into newly synthesized proteins was assessed by Western blot using an anti-puromycin antibody. To assess the accumulation of short-lived proteins in response to proteasome inhibition, cells grown in −SG medium or CM plus or minus 10 μM PH755 for 24 hours were treated for the last 6 hours with the proteasome inhibitor MG-132 (10 μM) before harvesting the cells for western blot analysis.

In another test the test system is KPC cells. In words: KPC cell proliferation with or without serine. The class given is cell-based, mouse. As to conditions: epacadostat 1 μM, −Serine medium, 5 days. Here is the method:
KPC cells (tumor cells derived from a pancreatic tumor of a Kras' p53″^t genetically engineered mouse) were seeded into 24-well plates and allowed to adhere overnight. […] Cell number was recorded every 24 h for 5 days. A time zero plate was used to calculate the starting cell number.

In another test the test system is HT-29 and HCT116 cells. As to conditions: supplement alone (1 mM sodium formate or 0.4 mM glycine).
The test system of test [2] is IDO1 expression. In words: Immunoblotting of IDO1 in KPC cells. The class given is cell-based, mouse.

Where a SMILES comes first, the peptide text is derived from it. The star is where a group is joined. Cbz = O=C(OCc1ccccc1)*

Method for HT-29 and HCT116 cells: Cells (2×10^4 to 3×10^4 cells/well depending on the cell lines) were plated in 24-well plates in their regular medium. […] For the counting step, cells were trypsinized, suspended in PBS-EDTA, and counted with a CASY Model TT Cell Counter. Relative cell number at each time point was calculated based on the number of cells measured before the medium change.

As to `CC(C)(C)c1nc2c3cc[nH]c(=O)c3c3cc(F)ccc3c2[nH]1` [JAKi], the “up-regulation of IDO1 protein levels in AI-grown cells” value in the test on IDO1 expression [1] (CFPAC-1 or HPAF-II cells, JAKi 1 μM, 16 h) is on record as “blocked”.

For `CC(C)C[C@@H](C=O)NC(=O)[C@H](CC(C)C)NC(=O)[C@H](CC(C)C)NC(=O)OCc1ccccc1` [MG-132] (Cbz-Leu-Leu-Leu-aldehyde), the IDO1 protein levels entry in the test on IDO1 expression [1] is recorded as “no effect on IDO1 protein levels”. Besides, in the test on ATF-4 response (cells in complete medium), the ATF-4 protein level entry is “strong accumulation of ATF-4”. Further, the “ATF-4 protein levels and ASNS, PSAT expression” value with ATF-4 response (cells in −SG medium plus PH755) is given as “no restoration of ATF-4 protein levels”.

Regarding `CO/C1=C\C(C)=C\[C@@H](C)[C@@H](O)[C@@H](C)C/C(C)=C/C=C/[C@H](OC)[C@@H]([C@@H](C)[C@@H](O)[C@H](C)[C@@]2(O)C[C@@H](O)[C@H](C)[C@@H](C(C)C)O2)OC1=O` [bafilomycin, bafilomycin A1], in the test with IDO1 expression [1], the IDO1 protein levels result was “no effect on IDO1 protein levels”. As to `NS(=O)(=O)NCCNc1nonc1C(=NO)Nc1ccc(F)c(Br)c1` [epacadostat], the “antiproliferative effect of serine starvation” value with KPC cells is recorded as “enhances the antiproliferative effect”.

As to `O=C[O-].[Na+]` [formate, sodium formate], the “growth of −SG plus PH755 treated cells” value in the test on HT-29 and HCT116 cells was “did not restore growth”. Still for that read-out and setting: in the case of `NCC(=O)O` [glycine] it was “did not restore growth”. For “human form of IFNγ: human cytokine IFNγ, canonical activator of IDO1”, the IDO1 expression result is on record as “consistently increased IDO1 expression” in the test with IDO1 expression [1] (panel of human pancreatic cancer cells, IFNγ 1 ng/ml, 24 h) and “did not impact IDO1 expression in murine cells” in the test on IDO1 expression [2] (murine cells, human form of IFNγ).

B1: murine form of cytokine IFNγ: murine cytokine IFNγ, a canonical activator of IDO1 (protein, UniProt P01580 23-155, looked up)
Interferon gamma: HGTVIESLESLNNYFNSSGIDVEEKSLFLDIWRNWQKDGDMKILQSQIISFYLRLFEVLKDNQAISNNISVIESHLITTFFSNSKAKKDAFMSIAKFEVNNPQVQRQAFNELIRVVHQLLPESSLRKRKRSRC
As to B1, the IDO1 expression result in the test with IDO1 expression [2] (KPC cells, murine IFNγ 1 ng/ml, 24 h) is “increased IDO1 expression in vitro”.

(Values after patent publication US20220193447A1, “METHODS FOR MODULATION OF AND SENSITIZATION TO SERINE AND GLYCINE LIMITATION” (Faeth Therapeutics, Inc., priority 2020, published 2022).)
